Assays:
Format in all cases: in vivo
corn (Zea mays) = experiment: Test A pre-/postemergence plant response
In short: (§1)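 Ratings are visual, 0–100, where 100 means complete control and 0 no effect, taken roughly 10 days after treatment by comparison with untreated controls. Formulation: non-phytotoxic solvent mixture with surfactant.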

[1] = tested on: giant foxtail (Setaria faberi); experiment: Test A pre-/postemergence plant response
In short: as §1

[2] = tested on: wheat (Triticum aestivum); experiment: Test A pre-/postemergence plant response
In short: as §1

[3] = tested on: velvetleaf (Abutilon theophrasti); experiment: Test A pre-/postemergence plant response
In short: as §1

[4] = tested on: morningglory (Ipomoea coccinea); experiment: Test A pre-/postemergence plant response
In short: as §1

[5] = tested on: barnyardgrass (Echinochloa crus-galli); experiment: Test A pre-/postemergence plant response
In short: as §1

[6] = tested on: pigweed (Amaranthus retroflexus); experiment: Test A pre-/postemergence plant response
In short: as §1

[7] = tested on: large crabgrass (Digitaria sanguinalis); experiment: Test A pre-/postemergence plant response
In short: as §1

[8] = tested on: umbrella sedge (Cyperus difformis); experiment: Test B flooded paddy test plant response
In short: (§2)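 Compounds were added directly to paddy water over 2-leaf-stage plants in pots flooded 3 cm above soil, water depth maintained. Visual injury scored against controls after 13 to 15 days in greenhouse, 0 (none) to 100 (complete control); dash indicates no result.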

[9] = tested on: barnyardgrass (Echinochloa crus-galli); experiment: Test B flooded paddy test plant response
In short: as §2

[10] = tested on: ducksalad (Heteranthera limosa); experiment: Test B flooded paddy test plant response
In short: as §2

rice (Oryza sativa) = experiment: Test B flooded paddy test plant response
In short: as §2

[11] = Postemergence, 125 g ai/ha, 0 to 100 scale, 0 no effect, 100 complete control
[12] = Postemergence, 500 g ai/ha, 0 to 100 scale, 0 no effect, 100 complete control
[13] = Preemergence, 125 g ai/ha, 0 to 100 scale (0 no effect, 100 complete control)
[14] = Preemergence, 500 g ai/ha, 0 to 100 scale (0 no effect, 100 complete control)
[15] = Flood (flooded paddy test), 62 g ai/ha, scale 0 to 100, 0 no effect, 100 complete control
[16] = Flood (flooded paddy test), 125 g ai/ha, scale 0 to 100, 0 no effect, 100 complete control
[17] = Flood (flooded paddy test), 250 g ai/ha, scale 0 to 100, 0 no effect, 100 complete control
[18] = Flood, 31 g ai/ha, scale 0 to 100
[19] = Postemergence, 31 g ai/ha, 0 to 100 scale (0 no effect, 100 complete control)
[20] = Preemergence, 31 g ai/ha, 0 to 100 scale, 0 is no effect, 100 is complete control

## Cn1ncc(O)c(-c2nn(-c3ccc(Cl)cc3)cc2Br)c1=O [Compound 31]
Corn (Zea mays); [11]
  Plant response rating, Corn: 10
Corn (Zea mays); [12]
  Plant response rating, Corn: 70
Corn (Zea mays); [13]
  Plant response rating, Corn: 50
Corn (Zea mays); [14]
  Plant response rating, Corn: 70
[1]; [11]
  Plant response rating, Foxtail, Giant: 90
[1]; [12]
  Plant response rating, Foxtail, Giant: 90
[1]; [13]
  Plant response rating, Foxtail, Giant: 100
[1]; [14]
  Plant response rating, Foxtail, Giant: 100
[2]; [11]
  Plant response rating, Wheat: 40
[2]; [12]
  Plant response rating, Wheat: 60
[2]; [13]
  Plant response rating, Wheat: 60
[2]; [14]
  Plant response rating, Wheat: 90
[3]; [11]
  Plant response rating, Velvetleaf: 0
[3]; [12]
  Plant response rating, Velvetleaf: 0
[3]; [13]
  Plant response rating, Velvetleaf: 0
[3]; [14]
  Plant response rating, Velvetleaf: 0
[4]; [11]
  Plant response rating, Morningglory: 0
[4]; [12]
  Plant response rating, Morningglory: 0
[4]; [13]
  Plant response rating, Morningglory: 0
[4]; [14]
  Plant response rating, Morningglory: 0
[5]; [11]
  Plant response rating, Barnyardgrass: 60
[5]; [12]
  Plant response rating, Barnyardgrass: 90
[5]; [13]
  Plant response rating, Barnyardgrass: 100
[5]; [14]
  Plant response rating, Barnyardgrass: 100
[6]; [11]
  Plant response rating, Pigweed: 0
[6]; [12]
  Plant response rating, Pigweed: 0
[6]; [13]
  Plant response rating, Pigweed: 0
[6]; [14]
  Plant response rating, Pigweed: 20
[7]; [11]
  Plant response rating, Crabgrass, Large: 60
[7]; [12]
  Plant response rating, Crabgrass, Large: 90
[7]; [13]
  Plant response rating, Crabgrass, Large: 100
[7]; [14]
  Plant response rating, Crabgrass, Large: 100
[8]; [15]
  Plant response rating, Sedge, Umbrella: 0
[8]; [16]
  Plant response rating, Sedge, Umbrella: 0
[8]; [17]
  Plant response rating, Sedge, Umbrella: 0
[8]; [18]
  Plant response rating, Sedge, Umbrella: 0
[9]; [15]
  Plant response rating, Barnyardgrass: 0
[9]; [16]
  Plant response rating, Barnyardgrass: 0
[9]; [17]
  Plant response rating, Barnyardgrass: 0
[9]; [18]
  Plant response rating, Barnyardgrass: 0
[10]; [15]
  Plant response rating, Ducksalad: 0
[10]; [16]
  Plant response rating, Ducksalad: 0
[10]; [17]
  Plant response rating, Ducksalad: 0
[10]; [18]
  Plant response rating, Ducksalad: 0
Rice (Oryza sativa); [15]
  Plant response rating, Rice: 0
Rice (Oryza sativa); [16]
  Plant response rating, Rice: 0
Rice (Oryza sativa); [17]
  Plant response rating, Rice: 0
Rice (Oryza sativa); [18]
  Plant response rating, Rice: 0

## COC(=O)Oc1cnn(C)c(=O)c1-n1nc(-c2ccc(Cl)cc2)cc1C [Compound 33]
Corn (Zea mays); [19]
  Plant response rating, Corn: 60
Corn (Zea mays); [11]
  Plant response rating, Corn: 90
Corn (Zea mays); [20]
  Plant response rating, Corn: 30
Corn (Zea mays); [13]
  Plant response rating, Corn: 90
[1]; [19]
  Plant response rating, Foxtail, Giant: 90
[1]; [11]
  Plant response rating, Foxtail, Giant: 100
[1]; [20]
  Plant response rating, Foxtail, Giant: 100
[1]; [13]
  Plant response rating, Foxtail, Giant: 100
[2]; [19]
  Plant response rating, Wheat: 20
[2]; [11]
  Plant response rating, Wheat: 70
[2]; [20]
  Plant response rating, Wheat: 50
[2]; [13]
  Plant response rating, Wheat: 80
[3]; [19]
  Plant response rating, Velvetleaf: 0
[3]; [11]
  Plant response rating, Velvetleaf: 0
[3]; [20]
  Plant response rating, Velvetleaf: 0
[3]; [13]
  Plant response rating, Velvetleaf: 0
[4]; [19]
  Plant response rating, Morningglory: 0
[4]; [11]
  Plant response rating, Morningglory: 0
[4]; [20]
  Plant response rating, Morningglory: 0
[4]; [13]
  Plant response rating, Morningglory: 0
[5]; [19]
  Plant response rating, Barnyardgrass: 90
[5]; [11]
  Plant response rating, Barnyardgrass: 100
[5]; [20]
  Plant response rating, Barnyardgrass: 100
[5]; [13]
  Plant response rating, Barnyardgrass: 100
[6]; [19]
  Plant response rating, Pigweed: 0
[6]; [11]
  Plant response rating, Pigweed: 0
[6]; [13]
  Plant response rating, Pigweed: 0
[7]; [19]
  Plant response rating, Crabgrass, Large: 90
[7]; [11]
  Plant response rating, Crabgrass, Large: 100
[7]; [20]
  Plant response rating, Crabgrass, Large: 90
[7]; [13]
  Plant response rating, Crabgrass, Large: 100
[8]; [15]
  Plant response rating, Sedge, Umbrella: 20
[8]; [16]
  Plant response rating, Sedge, Umbrella: 35
[8]; [17]
  Plant response rating, Sedge, Umbrella: 60
[8]; [18]
  Plant response rating, Sedge, Umbrella: 0
[9]; [15]
  Plant response rating, Barnyardgrass: 60
[9]; [16]
  Plant response rating, Barnyardgrass: 85
[9]; [17]
  Plant response rating, Barnyardgrass: 100
[9]; [18]
  Plant response rating, Barnyardgrass: 30
[10]; [15]
  Plant response rating, Ducksalad: 0
[10]; [16]
  Plant response rating, Ducksalad: 40
[10]; [17]
  Plant response rating, Ducksalad: 50
[10]; [18]
  Plant response rating, Ducksalad: 0
Rice (Oryza sativa); [15]
  Plant response rating, Rice: 65
Rice (Oryza sativa); [16]
  Plant response rating, Rice: 75
Rice (Oryza sativa); [17]
  Plant response rating, Rice: 80
Rice (Oryza sativa); [18]
  Plant response rating, Rice: 30

## Cc1cc(-c2ccc(Cl)cc2)nn1-c1c(OC(=O)C(C)C)cnn(C)c1=O [Compound 34]
Corn (Zea mays); [19]
  Plant response rating, Corn: 70
Corn (Zea mays); [11]
  Plant response rating, Corn: 90
Corn (Zea mays); [20]
  Plant response rating, Corn: 20
Corn (Zea mays); [13]
  Plant response rating, Corn: 60
[1]; [19]
  Plant response rating, Foxtail, Giant: 90
[1]; [11]
  Plant response rating, Foxtail, Giant: 100
[1]; [20]
  Plant response rating, Foxtail, Giant: 100
[1]; [13]
  Plant response rating, Foxtail, Giant: 100
[2]; [19]
  Plant response rating, Wheat: 40
[2]; [11]
  Plant response rating, Wheat: 60
[2]; [20]
  Plant response rating, Wheat: 30
[2]; [13]
  Plant response rating, Wheat: 70
[3]; [19]
  Plant response rating, Velvetleaf: 0
[3]; [11]
  Plant response rating, Velvetleaf: 0
[3]; [20]
  Plant response rating, Velvetleaf: 0
[3]; [13]
  Plant response rating, Velvetleaf: 0
[4]; [19]
  Plant response rating, Morningglory: 0
[4]; [11]
  Plant response rating, Morningglory: 0
[4]; [20]
  Plant response rating, Morningglory: 0
[4]; [13]
  Plant response rating, Morningglory: 0
[5]; [19]
  Plant response rating, Barnyardgrass: 90
[5]; [11]
  Plant response rating, Barnyardgrass: 100
[5]; [20]
  Plant response rating, Barnyardgrass: 70
[5]; [13]
  Plant response rating, Barnyardgrass: 100
[6]; [19]
  Plant response rating, Pigweed: 0
[6]; [11]
  Plant response rating, Pigweed: 10
[6]; [20]
  Plant response rating, Pigweed: 0
[6]; [13]
  Plant response rating, Pigweed: 0
[7]; [19]
  Plant response rating, Crabgrass, Large: 70
[7]; [11]
  Plant response rating, Crabgrass, Large: 100
[7]; [20]
  Plant response rating, Crabgrass, Large: 80
[7]; [13]
  Plant response rating, Crabgrass, Large: 90
[8]; [15]
  Plant response rating, Sedge, Umbrella: 0
[8]; [16]
  Plant response rating, Sedge, Umbrella: 0
[8]; [17]
  Plant response rating, Sedge, Umbrella: 0
[8]; [18]
  Plant response rating, Sedge, Umbrella: 0
[9]; [15]
  Plant response rating, Barnyardgrass: 50
[9]; [16]
  Plant response rating, Barnyardgrass: 100
[9]; [17]
  Plant response rating, Barnyardgrass: 100
[9]; [18]
  Plant response rating, Barnyardgrass: 40
[10]; [15]
  Plant response rating, Ducksalad: 0
[10]; [16]
  Plant response rating, Ducksalad: 30
[10]; [17]
  Plant response rating, Ducksalad: 40
[10]; [18]
  Plant response rating, Ducksalad: 0
Rice (Oryza sativa); [15]
  Plant response rating, Rice: 40
Rice (Oryza sativa); [16]
  Plant response rating, Rice: 70
Rice (Oryza sativa); [17]
  Plant response rating, Rice: 80
Rice (Oryza sativa); [18]
  Plant response rating, Rice: 0

Source: US20100267561A1, “HERBICIDAL PYRIDAZINONE DERIVATIVES” (priority 2007, published 2010)
